Measured values from ChEMBL document CHEMBL1151930, “Physicochemical determinants of human renal clearance” (J Med Chem, 2009).

Assay: clinical
Settings: human, in vivo
For `CCCc1nc2c(C)cc(-c3nc4ccccc4n3C)cc2n1Cc1ccc(-c2ccccc2C(=O)O)cc1`, the CL renal was 0.08 mL/min/kg.
`CCCCC(=O)N(Cc1ccc(-c2ccccc2-c2nnn[nH]2)cc1)[C@H](C(=O)O)C(C)C` gave a CL renal of 0.14 mL/min/kg.
`CNS(=O)(=O)CCc1ccc2[nH]cc(C3CCN(C)CC3)c2c1` showed a CL renal of 3.1 mL/min/kg.
`CNS(=O)(=O)Cc1ccc2[nH]cc(CCN(C)C)c2c1` showed a CL renal of 3.7 mL/min/kg.
`COc1cc2c3cc1Oc1cc(ccc1O)C[C@@H]1c4c(cc(OC)c(O)c4Oc4ccc(cc4)C[C@@H]3N(C)CC2)CC[N+]1(C)C.[Cl-]` gave a CL renal of 2.14 mL/min/kg.
With `C[C@H](N[C@@H](CCc1ccccc1)C(=O)O)C(=O)N1Cc2ccccc2C[C@H]1C(=O)O` the CL renal was 0.9 mL/min/kg.
For `CO/N=C(\C(=O)N[C@@H]1C(=O)N2C(C(=O)O)=C(C)CS[C@H]12)c1csc(N)n1`, the CL renal was 1.5 mL/min/kg.
Work on `N=C(N)c1ccc(CNC(=O)[C@@H]2CCN2C(=O)[C@H](NCC(=O)O)C2CCCCC2)cc1` yielded a CL renal of 1.6 mL/min/kg.
With `CCCCCCCCCC(=O)N[C@@H](Cc1c[nH]c2ccccc12)C(=O)N[C@H](CC(N)=O)C(=O)N[C@@H](CC(=O)O)C(=O)N[C@@H]1C(=O)NCC(=O)N[C@@H](CCCN)C(=O)N[C@@H](CC(=O)O)C(=O)N[C@H](C)C(=O)N[C@@H](CC(=O)O)C(=O)NCC(=O)N[C@H](CO)C(=O)N[C@@H]([C@H](C)CC(=O)O)C(=O)N[C@@H](CC(=O)c2ccccc2N)C(=O)O[C@@H]1C` the CL renal was 0.09 mL/min/kg.
`CC(C)(C)NC(=O)[C@@H]1CN(Cc2cccnc2)CCN1C[C@@H](O)C[C@@H](Cc1ccccc1)C(=O)N[C@H]1c2ccccc2C[C@H]1O.O` gave a CL renal of 1.53 mL/min/kg.
For `Cc1cccc(C)c1NC(=O)NCCCNC(C)C`, the CL renal was 2.3 mL/min/kg.
For `Nc1nc(N)c2nc(-c3ccccc3)c(N)nc2n1`, the CL renal was 2.77 mL/min/kg.
With `C=C1CC[C@@]2(O)[C@H]3Cc4ccc(O)c5c4[C@@]2(CCN3CC2CC2)[C@H]1O5` the CL renal was 0.75 mL/min/kg.
With `CN(C)CCCN1c2ccccc2CCc2cc(O)ccc21` [2-HYDROXYIMIPRAMINE] the CL renal was 0.3 mL/min/kg.
With `CC(C)=CCN1CC[C@]2(C)c3cc(O)ccc3C[C@H]1[C@H]2C` [(+)-PENTAZOCINE] the CL renal was 2.99 mL/min/kg.
Compound `Nc1nc(NC2CC2)c2ncn([C@H]3C=C[C@@H](CO)C3)c2n1` [ABACAVIR] has a CL renal of 0.15 mL/min/kg.
In the case of `CC(=O)Nc1nnc(S(N)(=O)=O)s1` [ACETAZOLAMIDE], the CL renal was 0.64 mL/min/kg.
For `Nc1ncnc2c1ncn2CCOCP(=O)(O)O` [ADEFOVIR], the CL renal was 3.33 mL/min/kg.
Work on `CN(C)Cc1nnc2n1-c1ccc(Cl)cc1C(c1ccccc1)=NC2` [ADINAZOLAM] yielded a CL renal of 2.6 mL/min/kg.
Work on `CN(C)CCc1c[nH]c2ccc(CS(=O)(=O)N3CCCC3)cc12` [ALMOTRIPTAN] yielded a CL renal of 5.79 mL/min/kg.
`Cc1nnc2n1-c1ccc(Cl)cc1C(c1ccccc1)=NC2` [ALPRAZOLAM] gave a CL renal of 0.15 mL/min/kg.
Compound `C=CCc1ccccc1OCC(O)CNC(C)C` (configuration not stated) [ALPRENOLOL] has a CL renal of 0.6 mL/min/kg.
Work on `NC12CC3CC(CC(C3)C1)C2` [AMANTADINE] yielded a CL renal of 4.8 mL/min/kg.
In the case of `CN(C)CCC=C1c2ccccc2CCc2ccccc21` [AMITRIPTYLINE], the CL renal was 0.12 mL/min/kg.
For `CC1(C)S[C@@H]2[C@H](NC(=O)[C@H](N)c3ccc(O)cc3)C(=O)N2[C@H]1C(=O)O` [AMOXICILLIN], the CL renal was 1.89 mL/min/kg.
Compound `CC1(C)S[C@@H]2[C@H](NC(=O)[C@H](N)c3ccccc3)C(=O)N2[C@H]1C(=O)O` [AMPICILLIN] has a CL renal of 1.2 mL/min/kg.
For `Cc1cc(=O)n(-c2ccccc2)n1C` [ANTIPYRINE], the CL renal was 0.02 mL/min/kg.
With `CC(=O)Oc1ccccc1C(=O)O` [ASPIRIN] the CL renal was 0.24 mL/min/kg.
Compound `CNCC[C@@H](Oc1ccccc1C)c1ccccc1` [ATOMOXETINE] has a CL renal of 0.28 mL/min/kg.
With `CC1(C)S[C@@H]2[C@H](NC(=O)[C@H](NC(=O)N3CCNC3=O)c3ccccc3)C(=O)N2[C@H]1C(=O)O` [AZLOCILLIN] the CL renal was 1.67 mL/min/kg.
Compound `C[C@H]1C[C@H]2[C@@H]3CCC4=CC(=O)C=C[C@]4(C)[C@@]3(F)[C@@H](O)C[C@]2(C)[C@@]1(O)C(=O)CO` [BETAMETHASONE] has a CL renal of 0.14 mL/min/kg.
Work on `CC(C)NCC(O)COc1ccc(CCOCC2CC2)cc1` (configuration not stated) [BETAXOLOL] yielded a CL renal of 0.7 mL/min/kg.
In the case of `COc1ccc(CCNCC(O)COc2cccc(C)c2)cc1OC` (configuration not stated) [BEVANTOLOL], the CL renal was 0.06 mL/min/kg.
With `C[C@@H](O)[C@H]1C(=O)N2C(C(=O)[O-])=C(SC3Cn4cnc[n+]4C3)[C@H](C)[C@H]12` (some centres not stated) [BIAPENEM] the CL renal was 1.23 mL/min/kg.
Work on `CC(C)NCC(O)COc1ccc(COCCOC(C)C)cc1` (configuration not stated) [BISOPROLOL] yielded a CL renal of 2.28 mL/min/kg.
`O=C1CN=C(c2ccccn2)c2cc(Br)ccc2N1` [BROMAZEPAM] showed a CL renal of 0.26 mL/min/kg.
Work on `CCN(CC)CCNC(=O)c1cc(Br)c(N)cc1OC` [BROMOPRIDE] yielded a CL renal of 1.4 mL/min/kg.
For `COc1cc(OC)c(C(=O)CCCN2CCCC2)c(OC)c1` [BUFLOMEDIL], the CL renal was 1.3 mL/min/kg.
Compound `CCCCNc1cc(C(=O)O)cc(S(N)(=O)=O)c1Oc1ccccc1` [BUMETANIDE] has a CL renal of 0.85 mL/min/kg.
With `CCCCN1CCCCC1C(=O)Nc1c(C)cccc1C` (configuration not stated) [BUPIVACAINE] the CL renal was 0.09 mL/min/kg.
`CS(=O)(=O)OCCCCOS(C)(=O)=O` [BUSULFAN] gave a CL renal of 0.2 mL/min/kg.
Work on `Oc1ccc2c(c1)[C@@]13CCCC[C@@]1(O)[C@@H](C2)N(CC1CCC1)CC3` [BUTORPHANOL] yielded a CL renal of 2.05 mL/min/kg.
